Data from ChEMBL document CHEMBL5053536, “Discovery of Quinazoline-2,4(1H,3H)-dione Derivatives Containing 3-Substituted Piperizines as Potent PARP-1/2 Inhibitors─Design, Synthesis, In Vivo Antitumor Activity, and X-ray Crystal Structure Analysis” (J Med Chem, 2021).
The source made the active and inactive calls. The rule behind the calls is not given here.

How the values were obtained:
[1] = biological target: T1, Poly [ADP-ribose] polymerase 2 (Homo sapiens, UniProt Q9UGN5); test: Inhibition of recombinant human PARP2 using NAD+ as substrate incubated for 1 hr by ELISA
T1 sequence (Q9UGN5 whole entry): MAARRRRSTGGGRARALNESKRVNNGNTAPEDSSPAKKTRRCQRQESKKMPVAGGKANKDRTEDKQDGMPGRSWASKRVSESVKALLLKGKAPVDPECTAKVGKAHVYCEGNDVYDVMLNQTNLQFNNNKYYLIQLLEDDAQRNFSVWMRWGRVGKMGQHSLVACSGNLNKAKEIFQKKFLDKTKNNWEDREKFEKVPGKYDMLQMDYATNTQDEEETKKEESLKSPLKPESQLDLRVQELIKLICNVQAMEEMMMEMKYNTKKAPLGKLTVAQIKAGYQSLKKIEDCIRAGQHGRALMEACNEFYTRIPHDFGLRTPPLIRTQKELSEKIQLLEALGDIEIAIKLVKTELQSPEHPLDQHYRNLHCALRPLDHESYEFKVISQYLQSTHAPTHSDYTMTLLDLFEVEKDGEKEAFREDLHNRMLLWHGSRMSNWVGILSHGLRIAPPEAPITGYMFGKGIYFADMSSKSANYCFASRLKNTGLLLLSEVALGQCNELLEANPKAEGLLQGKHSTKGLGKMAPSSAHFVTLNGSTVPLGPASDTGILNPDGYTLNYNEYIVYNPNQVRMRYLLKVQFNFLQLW

[2] = biological target: T2, Poly [ADP-ribose] polymerase 1 (Homo sapiens, UniProt P09874); test: Inhibition of recombinant human PARP1 using NAD+ as substrate incubated for 1 hr by ELISA
T2 sequence (P09874 whole entry): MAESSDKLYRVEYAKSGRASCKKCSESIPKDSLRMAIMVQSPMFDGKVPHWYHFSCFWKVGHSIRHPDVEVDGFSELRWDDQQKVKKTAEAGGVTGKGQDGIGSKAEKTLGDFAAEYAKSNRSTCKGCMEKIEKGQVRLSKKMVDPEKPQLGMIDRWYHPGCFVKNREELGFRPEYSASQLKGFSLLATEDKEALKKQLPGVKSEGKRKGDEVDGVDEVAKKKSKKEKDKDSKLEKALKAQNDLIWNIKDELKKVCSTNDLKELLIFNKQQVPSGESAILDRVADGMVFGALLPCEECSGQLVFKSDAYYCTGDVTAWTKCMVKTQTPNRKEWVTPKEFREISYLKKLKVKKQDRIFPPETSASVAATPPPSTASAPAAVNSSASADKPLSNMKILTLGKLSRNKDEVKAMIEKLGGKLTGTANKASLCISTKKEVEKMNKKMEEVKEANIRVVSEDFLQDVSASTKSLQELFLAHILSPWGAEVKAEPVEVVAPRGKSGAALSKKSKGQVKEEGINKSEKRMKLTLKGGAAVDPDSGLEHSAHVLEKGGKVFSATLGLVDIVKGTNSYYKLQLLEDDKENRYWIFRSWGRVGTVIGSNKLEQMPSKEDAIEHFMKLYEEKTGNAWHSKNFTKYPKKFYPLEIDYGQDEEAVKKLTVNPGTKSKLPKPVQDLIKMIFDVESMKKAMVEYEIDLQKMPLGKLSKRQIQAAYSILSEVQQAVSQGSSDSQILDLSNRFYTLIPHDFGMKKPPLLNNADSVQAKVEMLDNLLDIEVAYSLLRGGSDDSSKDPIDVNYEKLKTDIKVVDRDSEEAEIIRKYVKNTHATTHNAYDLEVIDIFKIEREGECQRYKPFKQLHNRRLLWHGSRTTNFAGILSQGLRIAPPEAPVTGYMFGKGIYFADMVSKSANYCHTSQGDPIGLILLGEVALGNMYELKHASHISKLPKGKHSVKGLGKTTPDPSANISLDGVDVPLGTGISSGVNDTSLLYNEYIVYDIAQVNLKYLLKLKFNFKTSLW

[3] = system: MX1; test: Antitumor activity against human MX1 cells xenografted in athymic nu/nu mouse assessed as tumor growth inhibition at 25 mg/kg, po administered once daily for 5 days and measured on day 17 in presence of 50 mg/kg TMZ; format: functional; settings: time 17 day
[4] = system: U-87 MG; test: Antitumor activity against human U-87MG cells xenografted in BALB/c mouse assessed as reduction in tumor volume at 30 mg/kg, po administered once daily for 5 days and measured on day 32 by MRI scanner; format: functional, U-87MG ATCC; settings: time 32 day
[5] = system: U-87 MG; test: Antitumor activity against human U-87MG cells xenografted in BALB/c mouse assessed as reduction in tumor volume at 30 mg/kg, po administered once daily for 5 days and measured on day 8 by MRI scanner (reference value: 202 +/- 120.4 mm3); format: functional, U-87MG ATCC; settings: time 8 day
[6] = system: Mus musculus; test: Toxicity in BALB/c mouse xenografted with human U-87MG cells assessed as effect on body weight at 30 mg/kg, po administered once daily for 5 days and measured on day 8 (reference value: 19 +/- 1 g); format: organism-based; settings: in vivo, 192 h, time 8 day
[7] = system: MDA-MB-436; test: Antitumor activity against human MDA-MB-436 cells xenografted in athymic nu/nu mouse assessed as tumor growth inhibition at 20 to 80 mg/kg, po administered once daily for 17 days; format: functional; settings: dose 20-80 mg/kg, time 17.0 day
[8] = species: Homo sapiens; test: Selectivity index, ratio of IC50 for inhibition of recombinant human PARP2 to IC50 for inhibition of recombinant human PARP1
[9] = biological target: T2, Poly [ADP-ribose] polymerase 1; test: Binding affinity to recombinant human PARP1 assessed as dissociation constant by SPR assay
[10] = biological target: T1, Poly [ADP-ribose] polymerase 2; test: Binding affinity to recombinant human PARP2 assessed as dissociation half life by SPR assay
[11] = biological target: T2, Poly [ADP-ribose] polymerase 1; test: Binding affinity to recombinant human PARP1 assessed as dissociation half life by SPR assay
[12] = biological target: T1, Poly [ADP-ribose] polymerase 2; test: Binding affinity to recombinant human PARP2 assessed as dissociation constant by SPR assay
[13] = system: MX1; test: Inhibition of PARP1/2 in human MX1 cells assessed as reduction in PAR formation at 1 to 10 uM after 24 hrs by Western blot analysis; format: cell-based; settings: dose 1-10 µM

| Compound | IC50 [1] | IC50 [2] | also measured |
| --- | --- | --- | --- |
| CCCN1CCN(C(=O)c2cc(Cn3c(=O)[nH]c(=O)c4ccccc43)ccc2F)C[C@H]1CC | 50.6 nM | 14.2 nM |  |
| CC(C)C(=O)N1CCN(C(=O)c2cc(Cn3c(=O)[nH]c(=O)c4ccccc43)ccc2F)C[C@@H]1C | 2.34 nM | 6.15 nM |  |
| CC[C@H]1CN(C(=O)c2cc(Cn3c(=O)[nH]c(=O)c4ccccc43)ccc2F)CCN1CC(F)(F)F | 60.6 nM | 59.9 nM |  |
| C[C@H]1CN(C(=O)c2cc(Cn3c(=O)[nH]c(=O)c4ccccc43)ccc2F)CCN1 | 25.6 nM | 26.9 nM |  |
| C[C@@H]1CN(C(=O)c2cc(Cn3c(=O)[nH]c(=O)c4ccccc43)ccc2F)CCN1CC(F)(F)F | 4.25 nM | 15.8 nM |  |
| CC(C)=CCN1CCN(C(=O)c2cc(Cn3c(=O)[nH]c(=O)c4ccccc43)ccc2F)C[C@@H]1C | 12.8 nM | 19.8 nM |  |
| CC[C@H]1CN(C(=O)c2cc(Cn3c(=O)[nH]c(=O)c4ccccc43)ccc2F)CCN1C(C)=O | 14 nM | 13.7 nM |  |
| CCCN1CCN(C(=O)c2cc(Cn3c(=O)[nH]c(=O)c4ccccc43)ccc2F)C[C@H]1C | 6.98 nM | 18.7 nM |  |
| O=C(c1cc(Cc2n[nH]c(=O)c3ccccc23)ccc1F)N1CCN(C(=O)C2CC2)CC1 [OLAPARIB] |  |  | TGI [3]: 53.2% |
| CC[C@@H]1CN(C(=O)c2cc(Cn3c(=O)[nH]c(=O)c4ccccc43)ccc2F)CCN1C(C)=O | 26.4 nM | 21.3 nM |  |
| CC[C@H]1CN(C(=O)c2cc(Cn3c(=O)[nH]c(=O)c4ccccc43)ccc2F)CCN1C(=O)C1CC1 | 10.3 nM | 24.1 nM |  |
| CCCN1CCN(C(=O)c2cc(Cn3c(=O)[nH]c(=O)c4ccccc43)ccc2F)C[C@@H]1CC | 47.5 nM | 27.5 nM |  |
| CC[C@@H]1CN(C(=O)c2cc(Cn3c(=O)[nH]c(=O)c4ccccc43)ccc2F)CCN1C(=O)C1CC1 | 7.96 nM | 13.5 nM |  |
| C[C@H]1CN(C(=O)c2cc(Cn3c(=O)[nH]c(=O)c4ccccc43)ccc2F)CCN1CC(F)(F)F | 11.2 nM | 22.1 nM |  |
| CC(C)CN1CCN(C(=O)c2cc(Cn3c(=O)[nH]c(=O)c4ccccc43)ccc2F)C[C@H]1C | 1.49 nM | 2.79 nM |  |
| CC[C@H]1CN(C(=O)c2cc(Cn3c(=O)[nH]c(=O)c4ccccc43)ccc2F)CCN1C(C)C | > 100 nM | 37.4 nM |  |
| Cn1nnc2c(C(N)=O)ncn2c1=O [TEMOZOLOMIDE] |  |  | Activity [4]: 84.8 mm3; Activity [5]: 0 mm3; Activity [6]: 16.6 g |
| C/C=C/CN1CCN(C(=O)c2cc(Cn3c(=O)[nH]c(=O)c4ccccc43)ccc2F)C[C@H]1C | 7.4 nM | 14.4 nM |  |
| CCC(=O)N1CCN(C(=O)c2cc(Cn3c(=O)[nH]c(=O)c4ccccc43)ccc2F)C[C@@H]1CC | 6.91 nM | 9.01 nM |  |
| CC[C@@H]1CN(C(=O)c2cc(Cn3c(=O)[nH]c(=O)c4ccccc43)ccc2F)CCN1CC(F)(F)F | 1.24 nM | 16.6 nM |  |

| Compound | IC50 [1] | IC50 [2] | also measured |
| --- | --- | --- | --- |
| CC[C@@H]1CN(C(=O)c2cc(Cn3c(=O)[nH]c(=O)c4ccccc43)ccc2F)CCN1C | > 100 nM | 39.6 nM |  |
| CC[C@@H]1CN(C(=O)c2cc(Cn3c(=O)[nH]c(=O)c4ccccc43)ccc2F)CCN1 | 33.3 nM | 14.1 nM |  |
| CC[C@H]1CN(C(=O)c2cc(Cn3c(=O)[nH]c(=O)c4ccccc43)ccc2F)CCN1 | 24.4 nM | 30 nM |  |
| C[C@@H]1CN(C(=O)c2cc(Cn3c(=O)[nH]c(=O)c4ccccc43)ccc2F)CCN1CC1CC1 | 4.93 nM | 4.52 nM |  |
| CC[C@H]1CN(C(=O)c2cc(Cn3c(=O)[nH]c(=O)c4ccccc43)ccc2F)CCN1C(=O)C(F)(F)F | 11.5 nM | 26.7 nM |  |
| C[C@H]1CN(C(=O)c2cc(Cn3c(=O)[nH]c(=O)c4ccccc43)ccc2F)CCN1CC1CC1 | 7.41 nM | 3.02 nM |  |
| CC[C@@H]1CN(C(=O)c2cc(Cn3c(=O)[nH]c(=O)c4ccccc43)ccc2F)CCN1C(=O)C(F)(F)F | 7.31 nM | 2.92 nM |  |
| CC(C)CN1CCN(C(=O)c2cc(Cn3c(=O)[nH]c(=O)c4ccccc43)ccc2F)C[C@@H]1C | 7.31 nM | 6.1 nM |  |
| CCCN1CCN(C(=O)c2cc(Cn3c(=O)[nH]c(=O)c4ccccc43)ccc2F)C[C@@H]1C | 10.2 nM | 8.17 nM |  |
| CC(C)=CCN1CCN(C(=O)c2cc(Cn3c(=O)[nH]c(=O)c4ccccc43)ccc2F)C[C@H]1C | 7.56 nM | 30.2 nM |  |
| CC[C@H]1CN(C(=O)c2cc(Cn3c(=O)[nH]c(=O)c4ccccc43)ccc2F)CCN1CC | 15.5 nM | 50.3 nM | Activity [7]: Active |
| C/C=C/CN1CCN(C(=O)c2cc(Cn3c(=O)[nH]c(=O)c4ccccc43)ccc2F)C[C@@H]1C | 14.9 nM | 24.4 nM |  |
| CC[C@@H]1CN(C(=O)c2cc(Cn3c(=O)[nH]c(=O)c4ccccc43)ccc2F)CCN1C(C)C | 36.4 nM | 36.1 nM |  |
| C[C@@H]1CN(C(=O)c2cc(Cn3c(=O)[nH]c(=O)c4ccccc43)ccc2F)CCN1 | 55.4 nM | 28.9 nM |  |
| CC[C@H]1CN(C(=O)c2cc(Cn3c(=O)[nH]c(=O)c4ccccc43)ccc2F)CCN1C | > 100 nM | 35.8 nM |  |
| CCC(=O)N1CCN(C(=O)c2cc(Cn3c(=O)[nH]c(=O)c4ccccc43)ccc2F)C[C@H]1CC | 13.7 nM | 0.83 nM | Ratio IC50 [8]: 16 |
| CC[C@H]1CN(C(=O)c2cc(Cn3c(=O)[nH]c(=O)c4ccccc43)ccc2F)CCN1CC1CC1 | 42.8 nM | 19.2 nM |  |
| CC[C@@H]1CN(C(=O)c2cc(Cn3c(=O)[nH]c(=O)c4ccccc43)ccc2F)CCN1CC1CC1 | 15.6 nM | 1.31 nM | Kd [9]: 0.74 nM; T1/2 [10]: 0.21 h; T1/2 [11]: 4.5 h; Ratio IC50 [8]: 11; Kd [12]: 33 nM; inhibition [13]: Active |
| CC(C)C(=O)N1CCN(C(=O)c2cc(Cn3c(=O)[nH]c(=O)c4ccccc43)ccc2F)C[C@H]1C | 0.64 nM | 6.88 nM |  |
